Measurements reported in PMC11788587, “Validating Low‐Dose Iohexol as a Marker for Glomerular Filtration Rate by In Vitro and In Vivo Studies” (Clinical and Translational Science, 2025).
Read-outs that look alike come from different tables or passages of the source.

Experiments:
[1] = cited from earlier work
OCT2 = test system: OCT2; design: method as in ref 15 Yang et al.; conditions: rat kidneys; ref 15 Yang et al.; cited from earlier work
[2] = cited from earlier work; remark: listed apart in the source
[3] = Clinical trial in healthy volunteers, noncompartmental analysis of plasma and urine; type: in vivo, human; conditions: for CL (plasma clearance, dose/AUC) / Ae0‐t (cumulative urinary excretion of unchanged iohexol) / Rmax (maximum observed excretion rate) / Vd / half-life / dose excreted / AUC: fasting, geomean (geoSD); for CL (plasma clearance, dose/AUC) / Vd / half-life / AUC: n=12, plasma; for Vd / half-life / dose excreted / AUC: human, iv; for Vd: read-out: Vz; for half-life: read-out: t1/2,λz (converted); for dose excreted: read-out: Recovery (percentage of dose recovered in urine)
[4] = design: method as in PMID 27679715; conditions: cited from earlier work
hOCT1 = target: T1, hOCT1 (Homo sapiens, UniProt O15245); experiment: Substrate assessment: iohexol uptake in 293 cells expressing hOCT1 vs control; type: in vitro ADME; conditions: 10 μM iohexol, median (95% CI)
T1 construct: expressed in transfected cells; host or cells: HEK-293 (293) cells, pEBTetD plasmid, doxycycline-induced
T1 sequence (O15245 1-554): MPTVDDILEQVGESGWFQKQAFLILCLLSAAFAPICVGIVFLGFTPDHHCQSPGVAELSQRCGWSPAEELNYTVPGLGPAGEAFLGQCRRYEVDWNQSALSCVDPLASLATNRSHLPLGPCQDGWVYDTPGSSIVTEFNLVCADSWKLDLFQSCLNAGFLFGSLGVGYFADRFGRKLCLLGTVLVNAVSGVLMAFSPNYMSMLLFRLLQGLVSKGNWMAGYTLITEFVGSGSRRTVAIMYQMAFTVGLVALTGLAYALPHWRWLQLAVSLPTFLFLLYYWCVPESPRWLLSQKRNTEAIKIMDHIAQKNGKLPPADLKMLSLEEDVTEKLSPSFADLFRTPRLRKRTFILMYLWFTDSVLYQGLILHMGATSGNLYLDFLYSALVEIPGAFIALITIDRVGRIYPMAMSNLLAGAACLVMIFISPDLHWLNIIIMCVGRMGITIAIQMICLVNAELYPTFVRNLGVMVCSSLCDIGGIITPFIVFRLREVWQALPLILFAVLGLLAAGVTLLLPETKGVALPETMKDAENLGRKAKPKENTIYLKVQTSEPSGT
Description: We characterized the inhibitory potential of iohexol on major drug transporters recommended by regulatory agencies, which were previously assessed in a clinical transporter phenotyping cocktail study. These transporters include hOAT1, hOAT3, hOCT1, hOCT2, hMATE1, hMATE2K, human organic anion transporter polypeptides (hOATP)1B1, hOATP1B3, and human multidrug resistance protein (hMDR)1. Additionally, we investigated whether iohexol is a substrate for any of the renal transporters among these, including hOAT1/3, hOCT1/2, and hMATE1/2K. Cell‐based uptake assays were used to assess the activities of hOAT1/3, hOCT1/2, hMATE1/2K, and hOATP1B1/1B3. Inside‐out membrane vesicle uptake assays were used to evaluate the activity of hMDR1.
For substrate assessments, iohexol was incubated with stably transfected HEK‐293 cells expressing one of the following transporters: hOAT1, hOAT3, hOCT1, hOCT2, hMATE1, or hMATE2K, as well as with control cells lacking transporter expression. Stably transfected cell lines containing pEBTetD plasmids with wild‐type human transporter cDNAs were generated as previously described. Transporter expression was induced by adding 1 μg/mL doxycycline to the growth medium for at least 20 h. Iohexol would be considered a substrate for these transporters if: (1) the ratio of iohexol uptake in cells expressing the transporter to that in control cells was ≥ 2, and (2) a known inhibitor of the transporter reduced iohexol uptake to ≤ 50% at concentrations ≥ 10 times its inhibition constant or half‐maximal inhibitory concentration.
Uptake assays were performed using stably transfected 293 cells, with or without the expression of one of the following transporters: hOAT1, hOAT3, hOCT1, hOCT2, hMATE1, or hMATE2K, as previously described.^1
For the substrate assessment, cells were incubated with 10 µM iohexol for 10 minutes and 30 minutes for each transporter. Inhibition assays were performed using specific standard substrates for each transporter: 10 µM para-aminohippuric acid (PAH) for hOAT1, 3 µM estrone-3-sulfate (E3S) for hOAT3, 50 µM metformin for hOCT1, 5 µM metformin for hOCT2, and 3 µM 1-methyl-4-phenylpyridinium (MPP+) for hMATE1 and hMATE2K. […]
R version 4.2.1 (R Foundation for Statistical Computing, Vienna, Austria) was used for statistical evaluations and data visualization. The data analysis approach for the in vitro study was detailed by Hsin CH et al..^1 In brief, for transport assays, the initial uptake rate was calculated by normalizing the substrate concentration to both the protein concentration and the incubation time for each dish or well. The transporter-mediated uptake rate (net uptake) was determined by performing an element-wise subtraction of uptake rates from different conditions. […]

[5] = Reference: 3235 mg i.v. bolus, urine, n=10
[6] = Test: 259 mg i.v. bolus, urine, n=10

CC(=O)N(CC(O)CO)c1c(I)c(C(=O)NCC(O)CO)c(I)c(C(=O)NCC(O)CO)c1I (centres unmarked) [iohexol]
Volume of distribution, previous three-compartment model estimate (median) [1]: 15.09 L | Cmax ([1]; following a 3235 mg iohexol injection, patients aged ≥ 70 years, median GFR 60.7 mL/min/1.73 m^2, read-out: Cmax (initial plasma concentration)): ~370 µM | Expression of OCT2 (OCT2): downregulated | Iohexol clearance ([2]; healthy adults, 95% CI 7.08–7.68 L/h, ref 44 Olsson et al.): 7.32 L/h | Median renal clearance ([2]; healthy adults, interquartile range 6.36–7.50, ref 39 Sterner et al.): 6.78 L/h/1.73 m^2 | Volume of distribution ([2]; healthy volunteers): 0.27 L/kg | T/R ratio (90% CIs) of urinary recovery ([3]; 259 mg test vs 3235 mg reference, urine, n=10): 1.06 (0.960–1.17) | CL (plasma clearance, dose/AUC) ([3]; Reference: 3235 mg i.v. bolus): 5.43 (1.19) L/h | Ae0‐t (cumulative urinary excretion of unchanged iohexol) [3, 5]: 3364 (1.14) mg | Rmax (maximum observed excretion rate) [3, 5]: 951 (1.12) mg/h | CL (plasma clearance, dose/AUC) ([3]; Test: 259 mg i.v. bolus): 5.46 (1.15) L/h | Ae0‐t (cumulative urinary excretion of unchanged iohexol) [3, 6]: 273 (1.09) mg | Rmax (maximum observed excretion rate) [3, 6]: 73.7 (1.27) mg/h | Vd ([3]; Reference: 3235 mg i.v. bolus): 32.4 L | half-life ([3]; Reference: 3235 mg i.v. bolus): 4.14 h | dose excreted [3, 5]: 103% | Vd ([3]; Test: 259 mg i.v. bolus): 26.1 L | half-life ([3]; Test: 259 mg i.v. bolus): 3.32 h | dose excreted [3, 6]: 106% | AUC ([3]; 259 mg, Test: 259 mg i.v. bolus, read-out: AUC0‐t): 46.5 µg·h/mL | AUC ([3]; 259 mg, Test: 259 mg i.v. bolus, read-out: AUC0‐∞): 46.7 µg·h/mL | AUC ([3]; 3235 mg, Reference: 3235 mg i.v. bolus, read-out: AUC0‐t): 598 µg·h/mL | AUC ([3]; 3235 mg, Reference: 3235 mg i.v. bolus, read-out: AUC0‐∞): 600 µg·h/mL | CVintra of CL ([3]; intraindividual coefficient of variation, test vs reference): 5.29% | Plasma protein binding [4]: 1.5% | Differences in intracellular accumulation (expression on minus off) (hOCT1; 10 minutes): 0.16 (-1.8 to 0.79) pmol/mg protein | Uptake ratio (transporter-expressing vs non-expressing cells) (hOCT1; 10 minutes): 1 (0.84 to 1.1) | Differences in intracellular accumulation (expression on minus off) (hOCT1; 30 minutes): -0.51 (-1.1 to -0.15) pmol/mg protein | Uptake ratio (transporter-expressing vs non-expressing cells) (hOCT1; 30 minutes): 0.89 (0.79 to 0.97)
